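Cultured in 96-well plates, cells were exposed to test compound for 48 hours across five concentrations. At the TGI there is no net growth.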
Experiments:
Assay in all cases: inhibition of tumour cell growth, NCI panel, 48 h
HL-60(TB) leukemia = test system: HL-60(TB) leukemia
SK-MEL-2 melanoma = test system: SK-MEL-2 melanoma
A498 renal = test system: A498 renal
MDA-MB-435 = test system: MDA-MB-435
HCT-116 colon = test system: HCT-116 colon
HT29 colon = test system: HT29 colon
UACC-62 melanoma = test system: UACC-62 melanoma
RXF 393 renal = test system: RXF 393 renal
SF-539 CNS = test system: SF-539 CNS
SK-MEL-28 melanoma = test system: SK-MEL-28 melanoma
UACC-257 melanoma = test system: UACC-257 melanoma
SNB-75 CNS = test system: SNB-75 CNS
LOX IMVI melanoma = test system: LOX IMVI melanoma
OVCAR-5 ovarian = test system: OVCAR-5 ovarian
K-562 leukemia = test system: K-562 leukemia
COLO 205 colon = test system: COLO 205 colon
DU-145 prostate = test system: DU-145 prostate
NCI-H23 lung = test system: NCI-H23 lung
OVCAR-3 ovarian = test system: OVCAR-3 ovarian
OVCAR-8 ovarian = test system: OVCAR-8 ovarian
CAKI-1 renal = test system: CAKI-1 renal
IGROV1 ovarian = test system: IGROV1 ovarian
RPMI-8226 leukemia = test system: RPMI-8226 leukemia
HCT-15 colon = test system: HCT-15 colon
M14 melanoma = test system: M14 melanoma
SW-620 colon = test system: SW-620 colon
SF-295 CNS = test system: SF-295 CNS
ACHN renal = test system: ACHN renal
MOLT-4 leukemia = test system: MOLT-4 leukemia
HS 578T breast = test system: HS 578T breast
EKVX NSCLC = test system: EKVX NSCLC
U251 CNS = test system: U251 CNS
HOP-62 NSCLC = test system: HOP-62 NSCLC
NCI/ADR-RES ovarian = test system: NCI/ADR-RES ovarian
MALME-3M melanoma = test system: MALME-3M melanoma
SF-268 CNS = test system: SF-268 CNS
NCI-H226 lung = test system: NCI-H226 lung
MDA-N = test system: MDA-N
786-0 renal = test system: 786-0 renal
UO-31 renal = test system: UO-31 renal
SN12C renal = test system: SN12C renal
PC-3 prostate = test system: PC-3 prostate
TK-10 renal = test system: TK-10 renal
BT-549 breast = test system: BT-549 breast
SK-OV-3 ovarian = test system: SK-OV-3 ovarian
CCRF-CEM leukemia = test system: CCRF-CEM leukemia
MDA-MB-231 breast = test system: MDA-MB-231 breast
KM12 colon = test system: KM12 colon
SNB-19 CNS = test system: SNB-19 CNS
SK-MEL-5 melanoma = test system: SK-MEL-5 melanoma
MCF7 breast = test system: MCF7 breast
T-47D breast = test system: T-47D breast
A549 NSCLC = test system: A549 NSCLC
NCI-H460 lung = test system: NCI-H460 lung
HCC-2998 colon = test system: HCC-2998 colon
NCI-H522 lung = test system: NCI-H522 lung
OVCAR-4 ovarian = test system: OVCAR-4 ovarian
HOP-92 NSCLC = test system: HOP-92 NSCLC

## CC(C)CCCC(=O)CCCCCCC(=O)CCN(O)C(=O)C(N)CO (stereo unspecified)
HL-60(TB) leukemia
  TGI: 60.2 µM
SK-MEL-2 melanoma
  TGI: 39.5 µM
A498 renal
  TGI: 31.8 µM
MDA-MB-435
  TGI: 83.6 µM
HCT-116 colon
  TGI: 38 µM
HT29 colon
  TGI: 43.5 µM
UACC-62 melanoma
  TGI: 34.6 µM
RXF 393 renal
  TGI: 27.4 µM
SF-539 CNS
  TGI: 37.4 µM
SK-MEL-28 melanoma
  TGI: 41.5 µM
UACC-257 melanoma
  TGI: 35.1 µM
SNB-75 CNS
  TGI: 31.1 µM
LOX IMVI melanoma
  TGI: 30.9 µM
OVCAR-5 ovarian
  TGI: 50.6 µM
K-562 leukemia
  TGI: > 100 µM
COLO 205 colon
  TGI: 53.5 µM
DU-145 prostate
  TGI: 37.4 µM
NCI-H23 lung
  TGI: 32.1 µM
OVCAR-3 ovarian
  TGI: 41.6 µM
OVCAR-8 ovarian
  TGI: 39.3 µM
CAKI-1 renal
  TGI: 39.4 µM
IGROV1 ovarian
  TGI: 31.9 µM
RPMI-8226 leukemia
  TGI: 57.5 µM
HCT-15 colon
  TGI: 42.6 µM
M14 melanoma
  TGI: 61.5 µM
SW-620 colon
  TGI: > 100 µM
SF-295 CNS
  TGI: 36.3 µM
ACHN renal
  TGI: 34.9 µM
MOLT-4 leukemia
  TGI: > 100 µM
HS 578T breast
  TGI: 68.8 µM
EKVX NSCLC
  TGI: 27.5 µM
U251 CNS
  TGI: 65 µM
HOP-62 NSCLC
  TGI: 40.8 µM
NCI/ADR-RES ovarian
  TGI: 38.4 µM
MALME-3M melanoma
  TGI: 36.6 µM
SF-268 CNS
  TGI: 60 µM
NCI-H226 lung
  TGI: 35.6 µM
MDA-N
  TGI: 49.4 µM
786-0 renal
  TGI: 36.2 µM
UO-31 renal
  TGI: 26.7 µM
SN12C renal
  TGI: 43 µM
PC-3 prostate
  TGI: 28.2 µM
TK-10 renal
  TGI: 32.2 µM
BT-549 breast
  TGI: 34.5 µM
SK-OV-3 ovarian
  TGI: 35.6 µM
CCRF-CEM leukemia
  TGI: > 100 µM
MDA-MB-231 breast
  TGI: 34.7 µM
KM12 colon
  TGI: 35.9 µM
SNB-19 CNS
  TGI: 48.6 µM
SK-MEL-5 melanoma
  TGI: 43.7 µM
MCF7 breast
  TGI: 44.7 µM
T-47D breast
  TGI: 34.8 µM

## CCn1c2ccccc2n2c(=O)c3c(c(C#N)c12)CCCC3
A549 NSCLC
  TGI: > 100 µM
HL-60(TB) leukemia
  TGI: > 100 µM
SK-MEL-2 melanoma
  TGI: > 100 µM
NCI-H460 lung
  TGI: > 100 µM
A498 renal
  TGI: > 100 µM
MDA-MB-435
  TGI: > 100 µM
HCT-116 colon
  TGI: > 100 µM
HCC-2998 colon
  TGI: > 100 µM
HT29 colon
  TGI: > 100 µM
UACC-62 melanoma
  TGI: > 100 µM
SF-539 CNS
  TGI: > 100 µM
SK-MEL-28 melanoma
  TGI: > 100 µM
UACC-257 melanoma
  TGI: > 100 µM
LOX IMVI melanoma
  TGI: > 100 µM
OVCAR-5 ovarian
  TGI: > 100 µM
K-562 leukemia
  TGI: > 100 µM
COLO 205 colon
  TGI: > 100 µM
DU-145 prostate
  TGI: > 100 µM
NCI-H23 lung
  TGI: > 100 µM
OVCAR-3 ovarian
  TGI: > 100 µM
OVCAR-8 ovarian
  TGI: > 100 µM
CAKI-1 renal
  TGI: > 100 µM
IGROV1 ovarian
  TGI: > 100 µM
NCI-H522 lung
  TGI: > 100 µM
HCT-15 colon
  TGI: > 100 µM
M14 melanoma
  TGI: > 100 µM
SW-620 colon
  TGI: > 100 µM
SF-295 CNS
  TGI: > 100 µM
ACHN renal
  TGI: > 100 µM
MOLT-4 leukemia
  TGI: > 100 µM
HS 578T breast
  TGI: > 100 µM
EKVX NSCLC
  TGI: > 100 µM
U251 CNS
  TGI: > 100 µM
NCI/ADR-RES ovarian
  TGI: > 100 µM
MALME-3M melanoma
  TGI: > 100 µM
SF-268 CNS
  TGI: > 100 µM
OVCAR-4 ovarian
  TGI: > 100 µM
NCI-H226 lung
  TGI: > 100 µM
MDA-N
  TGI: > 100 µM
786-0 renal
  TGI: > 100 µM
UO-31 renal
  TGI: > 100 µM
SN12C renal
  TGI: > 100 µM
PC-3 prostate
  TGI: > 100 µM
TK-10 renal
  TGI: > 100 µM
BT-549 breast
  TGI: > 100 µM
SK-OV-3 ovarian
  TGI: > 100 µM
CCRF-CEM leukemia
  TGI: > 100 µM
MDA-MB-231 breast
  TGI: > 100 µM
KM12 colon
  TGI: > 100 µM
HOP-92 NSCLC
  TGI: > 100 µM
SNB-19 CNS
  TGI: > 100 µM
SK-MEL-5 melanoma
  TGI: > 100 µM
MCF7 breast
  TGI: > 100 µM
T-47D breast
  TGI: > 100 µM
